Test results taken from patent publication US20260158009A1 (GENZYME CORPORATION, priority 2023, published 2026).

Columns and labels:
[1] = target: T1, hRIPK1 (aa 1-375) fusion protein (Homo sapiens, UniProt Q13546); test: ADP-Glo kinase assay: catalytic activity of RIPK1 (autophosphorylation, conversion of ATP to ADP); format: biochemical
T1 construct: hRIPK1 (aa 1-375) fusion protein
T1 sequence (Q13546 1-375): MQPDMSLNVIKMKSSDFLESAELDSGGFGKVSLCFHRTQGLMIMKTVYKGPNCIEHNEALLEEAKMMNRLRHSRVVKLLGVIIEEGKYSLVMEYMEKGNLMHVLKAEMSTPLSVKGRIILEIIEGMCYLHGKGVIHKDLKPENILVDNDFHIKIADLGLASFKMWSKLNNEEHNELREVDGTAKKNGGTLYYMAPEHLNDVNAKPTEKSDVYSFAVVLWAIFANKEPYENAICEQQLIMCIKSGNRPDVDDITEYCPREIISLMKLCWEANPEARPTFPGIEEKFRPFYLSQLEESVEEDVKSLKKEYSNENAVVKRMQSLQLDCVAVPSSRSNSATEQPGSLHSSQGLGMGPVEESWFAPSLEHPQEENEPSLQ
In short: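 hRIPK1 (aa 1-375) fusion protein (3.6 μg/ml final) was preincubated 30 min at rt with compound (33300-1.69 nM, 1% DMSO), then 50 μM ATP was added for 240 min at rt. ADP from autophosphorylation was measured by ADP-Glo luminescence and curves fitted by nonlinear regression.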

U937 cells = test: Cellular assay in U937 cells: activity of RIPK1 inhibitors on TNFα/zVAD.fmk-induced cell death (necroptosis), CellTiter 96 AQueous (MTS) readout; format: cell-based; conditions: Homo sapiens, U-937
In short: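 Necroptosis was measured by viable-cell MTS reduction (4 h, absorbance 490 nm) after overnight (18–24 h) 37° C culture. Cell suspensions of U937 cells carried TNFα (100 ng/ml) plus zVAD.fmk (50 μM) before compound was added. A 10-point curve (10 μM–0.26 nM or 1 μM–0.07 nM) was run in duplicate, normalised to the control lacking TNFα/zVAD.fmk.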

N#Cc1cc(F)cc([C@@H]2CCON2C(=O)[C@H]2CC[C@H](Cn3cnc4cc(F)ccc43)CC2)c1 [compound 48, trans-3-fluoro-5-((S)-2-(4-((5-fluoro-1H-benzo[d]imidazol-1-yl)methyl)cyclohexane-1-carbonyl)isoxazolidin-3-yl)benzonitrile] showed an IC50 [1] of 0.025 µM and an IC50 (U937 cells) of 0.015 µM.

With Cc1nccn1-c1cc(F)cc(C[C@H]2CC[C@H](C(=O)N3OCC[C@H]3c3cncc(F)c3)CC2)c1 [compound 220, trans-[4-[[3-fluoro-5-(2-methylimidazol-1-yl)phenyl]methyl]cyclohexyl]-[(3S)-3-(5-fluoro-3-pyridyl)isoxazolidin-2-yl]methanone] the IC50 [1] was 0.026 µM and the IC50 (U937 cells) was 0.012 µM.

In the case of Cc1nn(C[C@H]2CC[C@H](C(=O)N3OCC[C@H]3c3cc(F)cc(F)c3)CC2)c2ccccc12 [compound 60, trans-((S)-3-(3,5-difluorophenyl)isoxazolidin-2-yl)(4-((3-methyl-1H-indazol-1-yl)methyl)cyclohexyl)methanone], the IC50 [1] is reported as 0.014 µM and the IC50 (U937 cells) is reported as 0.005 µM.

O=C([C@H]1CC[C@H](Cn2ncc3cc(F)ccc32)CC1)N1OCC[C@H]1c1cc(F)cc(F)c1 [compound 55, trans-((S)-3-(3,5-difluorophenyl)isoxazolidin-2-yl)(4-((5-fluoro-1H-indazol-1-yl)methyl)cyclohexyl)methanone] showed an IC50 [1] of 0.021 µM and an IC50 (U937 cells) of 0.003 µM.

CNC(=O)c1cc(F)cc(C[C@H]2CC[C@H](C(=O)N3OCC[C@H]3c3cc(F)cc(F)c3)CC2)c1 [compound 161, trans-3-[[4-[(3S)-3-(3,5-difluorophenyl)isoxazolidine-2-carbonyl]cyclohexyl]methyl]-5-fluoro-N-methyl-benzamide] gave an IC50 [1] of 0.004 µM and an IC50 (U937 cells) of 0.001 µM.

With Cc1nc2c(F)cc(C[C@H]3CC[C@H](C(=O)N4OCC[C@H]4c4cc(F)cc(F)c4)CC3)cn2n1 [compound 285, trans-[(3S)-3-(3,5-difluorophenyl)isoxazolidin-2-yl]-[4-[(8-fluoro-2-methyl-[1,2,4]triazolo[1,5-a]pyridin-6-yl)methyl]cyclohexyl]methanone] the IC50 [1] was 0.011 µM and the IC50 (U937 cells) was 0.01 µM.

Work on Cc1ccc([C@@H]2CCON2C(=O)[C@H]2CC[C@H](Cc3cc(C)c4nc(C)nn4c3)CC2)cn1 [compound 325, trans-[4-[(2,8-dimethyl-[1,2,4]triazolo[1,5-a]pyridin-6-yl)methyl]cyclohexyl]-[(3S)-3-(6-methyl-3-pyridyl)isoxazolidin-2-yl]methanone] yielded an IC50 [1] of 0.125 µM and an IC50 (U937 cells) of 0.108 µM.

Compound Cc1nc([C@@H]2CCON2C(=O)[C@H]2CC[C@H](Cn3ccc4ncc(C#N)cc43)CC2)cs1 [compound 198, trans-1-[[4-[(3S)-3-(2-methylthiazol-4-yl)isoxazolidine-2-carbonyl]cyclohexyl]methyl]pyrrolo[3,2-b]pyridine-6-carbonitrile] has an IC50 [1] of 0.017 µM and an IC50 (U937 cells) of 0.007 µM.

N#Cc1cc(F)cc([C@@H]2CCON2C(=O)[C@H]2CC[C@H](Cn3cnc4cc(C#N)ccc43)CC2)c1 [compound 5, trans-1-((4-((S)-3-(3-cyano-5-fluorophenyl)isoxazolidine-2-carbonyl)cyclohexyl)methyl)-1H-benzo[d]imidazole-5-carbonitrile] gave an IC50 [1] of 0.045 µM and an IC50 (U937 cells) of 0.244 µM.

Work on Cc1ncn(C[C@H]2CC[C@H](C(=O)N3OCC[C@H]3c3cc(F)cc(F)c3)CC2)c1C [compound 83, trans-((S)-3-(3,5-difluorophenyl)isoxazolidin-2-yl)(4-((4,5-dimethyl-1H-imidazol-1-yl)methyl)cyclohexyl)methanone] yielded an IC50 [1] of 0.032 µM and an IC50 (U937 cells) of 0.022 µM.

Cc1ncc(F)cc1C[C@H]1CC[C@H](C(=O)N2OCC[C@H]2c2cc(F)cc(C#N)c2)CC1 [compound 181, trans-3-fluoro-5-[(3S)-2-[4-[(5-fluoro-2-methyl-3-pyridyl)methyl]cyclohexanecarbonyl]isoxazolidin-3-yl]benzonitrile] was tested, and the IC50 [1] was 0.026 µM and the IC50 (U937 cells) was 0.002 µM.

For Cc1cc(C[C@H]2CC[C@H](C(=O)N3OCC[C@H]3c3cc(F)cc(C#N)c3)CC2)cn2ncnc12 [compound 249, trans-3-fluoro-5-[(3S)-2-[4-[(8-methyl-[1,2,4]triazolo[1,5-a]pyridin-6-yl)methyl]cyclohexanecarbonyl]-1,2-oxazolidin-3-yl]benzonitrile], the IC50 [1] was 0.018 µM and the IC50 (U937 cells) was 0.005 µM.

Work on COc1cncc([C@@H]2CCON2C(=O)[C@H]2CC[C@H](Cc3ccc(C)c(C(N)=O)c3)CC2)n1 [compound 166, trans-5-[[4-[(3S)-3-(6-methoxypyrazin-2-yl)isoxazolidine-2-carbonyl]cyclohexyl]methyl]-2-methyl-benzamide] yielded an IC50 [1] of 0.008 µM and an IC50 (U937 cells) of 0.05 µM.

With N#Cc1cnc2cnn(C[C@H]3CC[C@H](C(=O)N4OCC[C@H]4c4cc(F)cc(F)c4)CC3)c2c1 [compound 26, trans-1-((4-((S)-3-(3,5-difluorophenyl)isoxazolidine-2-carbonyl)cyclohexyl)methyl)-1H-pyrazolo[4,3-b]pyridine-6-carbonitrile] the IC50 [1] was 0.02 µM and the IC50 (U937 cells) was 0.002 µM.

With N#Cc1cc2cnn(C[C@H]3CC[C@H](C(=O)N4OCC[C@H]4c4cc(F)cc(F)c4)CC3)c2cc1F [compound 67, trans-1-((4-((S)-3-(3,5-difluorophenyl)isoxazolidine-2-carbonyl)cyclohexyl)methyl)-6-fluoro-1H-indazole-5-carbonitrile] the IC50 [1] was 0.015 µM and the IC50 (U937 cells) was 0.002 µM.

For N#Cc1cnc2cnn(C[C@H]3CC[C@H](C(=O)N4OCC[C@H]4c4ccccn4)CC3)c2c1 [compound 187, trans-1-[[4-[(3S)-3-(2-pyridyl)isoxazolidine-2-carbonyl]cyclohexyl]methyl]pyrazolo[4,3-b]pyridine-6-carbonitrile], the IC50 [1] was 0.051 µM and the IC50 (U937 cells) was 0.121 µM.

Cc1ccc([C@@H]2CCON2C(=O)[C@H]2CC[C@H](Cc3ccc(C)c(C(N)=O)c3)CC2)cc1 [compound 131, trans-2-methyl-5-[[4-[(3S)-3-(p-tolyl)isoxazolidine-2-carbonyl]cyclohexyl]methyl]benzamide] was tested, and the IC50 [1] was 0.015 µM and the IC50 (U937 cells) was 0.005 µM.

For Cc1nnc2ccc(CC3CCC(C(=O)N4OCC[C@H]4c4cnccn4)CC3)c(C)n12 (stereo partly drawn) [compound 358, [4-[(3,5-dimethyl-[1,2,4]triazolo[4,3-a]pyridin-6-yl)methyl]cyclohexyl]-[(3S)-3-pyrazin-2-yl-1,2-oxazolidin-2-yl]methanone], the IC50 [1] was 0.031 µM and the IC50 (U937 cells) was 0.481 µM.

N#Cc1ccc2nn(C[C@H]3CC[C@H](C(=O)N4OCC[C@H]4c4cc(F)cc(F)c4)CC3)cc2c1 [compound 58, trans-2-((4-((S)-3-(3,5-difluorophenyl)isoxazolidine-2-carbonyl)cyclohexyl)methyl)-2H-indazole-5-carbonitrile] gave an IC50 [1] of 0.026 µM and an IC50 (U937 cells) of 0.032 µM.

For Cn1nccc1C[C@H]1CC[C@H](C(=O)N2OCC[C@H]2c2ccc(F)c(F)c2)CC1 [compound 311, trans-[(3S)-3-(3,4-difluorophenyl)isoxazolidin-2-yl]-[4-[(2-methylpyrazol-3-yl)methyl]cyclohexyl]methanone], the IC50 [1] was 0.011 µM and the IC50 (U937 cells) was 0.016 µM.

For Cn1cncc1C[C@H]1CC[C@H](C(=O)N2OCC[C@H]2c2cncc(C#N)c2)CC1 [compound 168, trans-5-[(3S)-2-[4-[(3-methylimidazol-4-yl)methyl]cyclohexanecarbonyl]isoxazolidin-3-yl]pyridine-3-carbonitrile], the IC50 [1] was 0.829 µM and the IC50 (U937 cells) was 0.653 µM.
